As usually defined, the EC50 is the concentration that produces a half-maximal response. The IC50 is the midpoint of a concentration-inhibition curve.

The text below walks through data of patent US10316017B2, “COT modulators and methods of use thereof” (Gilead Sciences, Inc., priority 2015, dated 2019).

For experiment [1], the system named is TNFα production in LPS-stimulated human monocytes. The experiment is described as follows: Cot Monocyte TNFα Cell Based Assay. The settings on record: Homo sapiens, Monocyte, read-out: EC50 TNF. An outline of the steps: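 TNFα release quantified by two-antibody TR-FRET, normalised to unstimulated (0%) and LPS-stimulated (100%) wells. Cells got a 1 h compound exposure at 37° C in 0.5% DMSO before 4 h challenge with 50 pg/ml LPS, at 5,000 cells/well.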

Experiment [2] has as its target T1, human Cot catalytic domain (30-397 amino acids) (Homo sapiens, UniProt P41279).
T1 construct: Purified recombinant human Cot catalytic domain (30-397 amino acids) was purchased from Cama Biosciences; purchased Cama Biosciences (so in the source)
The experiment is described as follows: High Throughput Cot Biochemical Assay (KinEASE TR-FRET). Particulars: read-out: IC50 HTRF. The gist of the method: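 TR-FRET (KinEASE) read-out: Eu-labelled phospho-specific antibody binds XL665-tagged STK3 peptide (1 μM) phosphorylated by 5 nM human Cot kinase domain (residues 30-397). Reaction at 400 μM ATP, pH 7.0 MOPS buffer with 10 mM MgOAc, 1 mM DTT and 0.1% DMSO.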
(TR-FRET usually uses a lanthanide donor and a delayed reading to cut background.)

The mark [3] stands for this setting: TNFα in LPS-stimulated human monocytes.
Setting [4] is: Cot KinEASE TR-FRET (HTRF) biochemical assay, 400 μM ATP.
Where [5] appears, read: Cot biochemical HTRF (KinEASE TR-FRET) assay.
Setting [6] is: LPS-stimulated human monocytes, TNFα TR-FRET.
Where [7] appears, read: Cot KinEASE TR-FRET, 400 μM ATP.

Like-named read-outs stand apart in the source and are kept apart here.

T1 sequence (P41279 30-397): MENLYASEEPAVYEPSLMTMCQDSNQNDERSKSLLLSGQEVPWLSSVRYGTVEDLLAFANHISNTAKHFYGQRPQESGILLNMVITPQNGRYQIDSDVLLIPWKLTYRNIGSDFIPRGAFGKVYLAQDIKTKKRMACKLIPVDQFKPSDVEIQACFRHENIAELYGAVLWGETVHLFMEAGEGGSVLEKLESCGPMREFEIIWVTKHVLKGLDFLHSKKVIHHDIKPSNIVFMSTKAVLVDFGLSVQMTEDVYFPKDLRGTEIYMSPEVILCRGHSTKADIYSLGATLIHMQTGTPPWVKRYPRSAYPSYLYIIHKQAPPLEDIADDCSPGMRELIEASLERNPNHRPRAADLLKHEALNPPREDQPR

`CC(C)(C)CNc1c(C#N)cnc2c(Cl)cc(N[C@H](c3cn(C4CC4)nn3)c3ccccc3-c3ccccc3)cc12` [Example 97, (S)-6-(([1,1'-biphenyl]-2-yl(1-cyclopropyl-1H-1,2,3-triazol-4-yl)methyl)amino)-8-chloro-4-(neopentylamino) quinoline-3-carbonitrile]: the concentration for a half-maximal effect (EC50) in experiment [1] (setting [3]) was more than 1000 nM. In addition, the IC50 in experiment [2] (setting [4]) came out at 985 nM.
As to `COCCNc1c(C#N)cnc2c(Cl)cc(N[C@@H](c3ccccc3)c3cn(C4CCN(C(C)(C)C)CC4)nn3)cc12` [Example 554, (S)-6-(((1-(1-(tert-butyl)piperidin-4-yl)-1H-1,2,3-triazol-4-yl)(phenyl)methyl)amino)-8-chloro-4-((2-methoxyethyl)amino)quinoline-3-carbonitrile], the concentration giving a half-maximal response (EC50) in experiment [1] (setting [3]) was 8250 nM. In addition, the IC50 in experiment [2] (setting [5]) turned out to be 1300 nM.
On the same counts, the results for `CC(C)(C)N1CCC(n2cc(C(Nc3cc(Cl)c4ncc(C#N)c(NC5CCC(O)CC5)c4c3)c3ccccc3)nn2)CC1` [Example 597, 6-(((S)-(1-(1-(tert-butyl)piperidin-4-yl)-1H-1,2,3-triazol-4-yl)(phenyl)methyl)amino)-8-chloro-4-(((1r,4S)-4-hydroxycyclohexyl)amino) quinoline-3-carbonitrile] are 3180 nM and 189 nM.
Consider `CC[C@@H](Nc1c(C#N)cnc2c(Cl)cc(N[C@@H](c3ccc(F)cc3)c3cn(-c4ccncc4)nn3)cc12)c1ccccc1` [Example 390, 8-chloro-6-(((S)-(4-fluorophenyl)(1-(pyridin-4-yl)-1H-1,2,3-triazol-4-yl)methyl)amino)-4-(((R)-1-phenylpropyl)amino)quinoline-3-carbonitrile], for which the EC50 in experiment [1] (setting [3]) came to 318 nM. Also, in experiment [2] (setting [4]), the IC50 was 30 nM.
Regarding `CC[C@@H](Nc1c(C#N)cnc2c(Cl)cc(N[C@H](c3cn(C4CC4)nn3)c3ccccc3F)cc12)c1ccccc1` [Example 429, 8-chloro-6-(((S)-(1-cyclopropyl-1H-1,2,3-triazol-4-yl)(2-fluorophenyl)methyl)amino)-4-(((R)-1-phenylpropyl)amino)quinoline-3-carbonitrile], in experiment [1] (setting [3]), the EC50 is 257 nM. The IC50 in experiment [2] (setting [5]) stood at 9 nM.
The corresponding values for `CC(C)n1cc([C@@H](Nc2cc(Cl)c3ncc(C#N)c(Nc4ccc(F)c(Cl)c4)c3c2)c2cccc(CNCCN(C)C)c2)nn1` [Example 711, (S)-8-chloro-4-((3-chloro-4-fluorophenyl)amino)-6-(((3-(((2-(dimethylamino)ethyl)amino)methyl)phenyl)(1-isopropyl-1H-1,2,3-triazol-4-yl)methyl)amino)quinoline-3-carbonitrile] are more than 10000 nM and 46 nM.
Take `[2H][C@](Nc1cc(Cl)c2ncc(C#N)c(NC3CCOCC3(C)C)c2c1)(c1ccc(F)cc1)c1cn(C2CC2)nn1` (stereo partly drawn) [Example 190, 8-chloro-6-(((S)-(1-cyclopropyl-1H-1,2,3-triazol-4-yl)(4-fluorophenyl)methyl-d)amino)-4-((3,3-dimethyltetrahydro-2H-pyran-4-yl)amino)quinoline-3-carbonitrile]: the EC50 in experiment [1] (setting [3]) amounted to 55 nM. Moreover, the half-inhibitory concentration (IC50) in experiment [2] (setting [4]) was determined as 3 nM.
`CC(=O)Nc1cccc([C@H](Nc2cc(Cl)c3ncc(C#N)c(Nc4ccc(F)c(Cl)c4)c3c2)c2cn(C3CCN(C(C)(C)C)CC3)nn2)c1` [Example 624, (S)-N-(3-((1-(1-(tert-butyl)piperidin-4-yl)-1H-1,2,3-triazol-4-yl)((8-chloro-4-((3-chloro-4-fluorophenyl)amino)-3-cyanoquinolin-6-yl)amino)methyl)phenyl)acetamide]: the EC50 in experiment [1] (setting [3]) is 266 nM. Also, the IC50 in experiment [2] (setting [5]) is 3 nM.
With `[2H][C@](Nc1cc(Cl)c2ncc(C#N)c(Nc3cccc(Cl)c3C#N)c2c1)(c1ccc(F)cc1)c1cn(C2CC2)nn1` [Example 934, (S)-8-chloro-4-((3-chloro-2-cyanophenyl)amino)-6-(((1-cyclopropyl-1H-1,2,3-triazol-4-yl)(4-fluorophenyl)methyl-d)amino)quinoline-3-carbonitrile], the EC50 in experiment [1] (setting [6]) was not below 1000 nM. Further, the IC50 in experiment [2] (setting [7]) came to 371 nM.
As for `[2H][C@](Nc1cc(I)c2ncc(C#N)c(NCC(C)(C)C)c2c1)(c1ccc(F)cc1)c1cn(C2CC2)nn1` [Example 102, (S)-6-(((1-cyclopropyl-1H-1,2,3-triazol-4-yl)(4-fluorophenyl)methyl-d)amino)-8-iodo-4-(neopentylamino) quinoline-3-carbonitrile], in experiment [1] (setting [3]), the EC50 is more than 1000 nM. Further, the IC50 in experiment [2] (setting [4]) was 58 nM.
In the case of `CC(C)(C)N1CCC(n2cc([C@@H](Nc3cc(Cl)c4ncc(C#N)c(Nc5ccc(F)c(Cl)c5)c4c3)c3cccc(-c4ncco4)c3)nn2)CC1` [Compound 23], the EC50 in experiment [1] (setting [3]) was 95 nM. The IC50 in experiment [2] (setting [4]) turned out to be 2 nM.
Take `CC(C)(C)N1CCC(n2cc([C@@H](Nc3cc(Cl)c4ncc(C#N)c(Nc5cccc(Br)c5)c4c3)c3ccc(Cl)cc3)nn2)CC1` [Example 757, (S)-4-((3-bromophenyl)amino)-6-(((1-(1-(tert-butyl)piperidin-4-yl)-1H-1,2,3-triazol-4-yl)(4-chlorophenyl)methyl)amino)-8-chloroquinoline-3-carbonitrile]: the EC50 in experiment [1] (setting [3]) came out at 738 nM. The IC50 in experiment [2] (setting [5]) worked out at 41 nM.
Take `N#Cc1cnc2c(Cl)cc(NC(c3ccccc3)c3cn(C4CCNCC4)cn3)cc2c1Nc1ccc(F)c(Cl)c1` (stereo not drawn) [Example 642, 8-chloro-4-((3-chloro-4-fluorophenyl)amino)-6-((phenyl (1-(piperidin-4-yl)-1H-imidazo-4-yl)methyl)amino)quinoline-3-carbonitrile]: the EC50 in experiment [1] (setting [3]) came out at 383 nM. The concentration for half-maximal inhibition (IC50) in experiment [2] (setting [5]) amounted to 17 nM.
On to `CC(C)(CO)CNc1c(C#N)cnc2c(C#N)cc(N[C@H](c3cn(C4(C)CC4)nn3)c3ccccc3Cl)cc12` [Example 1035, (S)-6-(((2-chlorophenyl)(1-(1-methylcyclopropyl)-1H-1,2,3-triazol-4-yl)methyl)amino)-4-((3-hydroxy-2,2-dimethylpropyl)amino)quinoline-3,8-dicarbonitrile], for which the concentration giving a half-maximal response (EC50) in experiment [1] (setting [6]) was 316 nM. The IC50 in experiment [2] (setting [7]) turned out to be 19 nM.
`CC(C)n1cc([C@@H](Nc2cc(Cl)c3ncc(C#N)c(Nc4ccc(F)c(Cl)c4)c3c2)c2cccc(N(C)S(C)(=O)=O)c2)nn1` [Example 567, (S)-N-(3-(((8-chloro-4-((3-chloro-4-fluorophenyl)amino)-3-cyanoquinolin-6-yl)amino)(1-isopropyl-1H-1,2,3-triazol-4-yl)methyl)phenyl)-N-methylmethanesulfonamide]: the EC50 in experiment [1] (setting [3]) came out at 76 nM. In addition, the IC50 in experiment [2] (setting [5]) was determined as 3 nM.
Consider `[2H][C@](Nc1cc(Cl)c2ncc(C#N)c(Nc3cccc(Cl)c3C)c2c1)(c1ccc(F)cc1)c1cn(C2CC2)nn1` [Example 159, (S)-8-chloro-4-((3-chloro-2-methylphenyl)amino)-6-(((1-cyclopropyl-1H-1,2,3-triazol-4-yl)(4-fluorophenyl)methyl-d)amino)quinoline-3-carbonitrile], for which, in experiment [1] (setting [3]), the concentration for a half-maximal effect (EC50) turned out to be 1340 nM. In experiment [2] (setting [4]), the IC50 is 114 nM.
For `N#Cc1cnc2c(Cl)cc(N[C@H](c3cn(C4COC4)nn3)c3c(F)cc(F)cc3F)cc2c1Nc1cnc(F)c(F)c1` [Example 500, (S)-8-chloro-4-((5,6-difluoropyridin-3-yl)amino)-6-(((1-(oxetan-3-yl)-1H-1,2,3-triazol-4-yl)(2,4,6-trifluorophenyl)methyl)amino)quinoline-3-carbonitrile], the EC50 in experiment [1] (setting [3]) was 2160 nM. Moreover, the IC50 in experiment [2] (setting [5]) was 92 nM.
Take `N#Cc1cnc2c(Cl)cc(N[C@@H](c3ccc(F)cc3)c3c[nH]nn3)cc2c1Nc1ccc(Cl)c(Cl)c1F` [Example 449, (S)-8-chloro-4-((3,4-dichloro-2-fluorophenyl)amino)-6-(((4-fluorophenyl)(1H-1,2,3-triazol-4-yl)methyl)amino)quinoline-3-carbonitrile]: in experiment [1] (setting [3]), the EC50 turned out to be 830 nM. Further, the IC50 in experiment [2] (setting [5]) stood at 161 nM.
Turning to `[2H][C@](Nc1cc(Cl)c2ncc(C#N)c(NC(CC)c3cnc(F)c(F)c3)c2c1)(c1ccc(F)cc1)c1cn(C2CC2)nn1` (stereo partly drawn) [Example 180, 8-chloro-6-(((S)-(1-cyclopropyl-1H-1,2,3-triazol-4-yl)(4-fluorophenyl)methyl-d)amino)-4-((1-(5,6-difluoropyridin-3-yl)propyl)amino) quinoline-3-carbonitrile], in experiment [1] (setting [3]), the EC50 turned out to be 3590 nM. In addition, the 50% inhibitory concentration (IC50) in experiment [2] (setting [4]) was 194 nM.
`[2H][C@](Nc1cc(Cl)c2ncc(C#N)c(NC34CC(C3)C4)c2c1)(c1ccc(F)cc1)c1cn(C2CC2)nn1` [Example 153, (S)-4-(bicyclo[1.1.1]pentan-1-ylamino)-8-chloro-6-(((1-cyclopropyl-1H-1,2,3-triazol-4-yl)(4-fluorophenyl)methyl-d)amino)quinoline-3-carbonitrile]: the EC50 in experiment [1] (setting [3]) was 892 nM. Also, in experiment [2] (setting [4]), the half-inhibitory concentration (IC50) was 196 nM.
With `CC(C)(C)CNc1c(C#N)cnc2c(C#N)cc(N[C@H](c3cn(C4(CF)CC4)nn3)c3ccccc3Cl)cc12` [Example 1036, (S)-6-(((2-chlorophenyl)(1-(1-(fluoromethyl)cyclopropyl)-1H-1,2,3-triazol-4-yl)methyl)amino)-4-(neopentylamino)quinoline-3,8-dicarbonitrile], the EC50 in experiment [1] (setting [6]) was found to be 195 nM. Moreover, the IC50 in experiment [2] (setting [7]) came out at 9 nM.
